Source: article PMC8509980 (Chinese Medical Journal, 2021)

Biological target: T1, sineoculis homeobox homolog 1 (SIX1) (Homo sapiens, UniProt Q15475)
T1 sequence (Q15475 1-284): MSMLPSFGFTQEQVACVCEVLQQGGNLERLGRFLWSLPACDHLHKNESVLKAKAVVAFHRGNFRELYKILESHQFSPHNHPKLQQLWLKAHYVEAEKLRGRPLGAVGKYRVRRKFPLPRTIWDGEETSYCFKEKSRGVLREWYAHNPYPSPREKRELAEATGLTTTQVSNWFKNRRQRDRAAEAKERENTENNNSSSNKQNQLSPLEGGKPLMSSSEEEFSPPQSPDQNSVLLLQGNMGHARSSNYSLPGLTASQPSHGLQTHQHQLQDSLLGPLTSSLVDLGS
T1 sequence (Q99502 1-592 partner): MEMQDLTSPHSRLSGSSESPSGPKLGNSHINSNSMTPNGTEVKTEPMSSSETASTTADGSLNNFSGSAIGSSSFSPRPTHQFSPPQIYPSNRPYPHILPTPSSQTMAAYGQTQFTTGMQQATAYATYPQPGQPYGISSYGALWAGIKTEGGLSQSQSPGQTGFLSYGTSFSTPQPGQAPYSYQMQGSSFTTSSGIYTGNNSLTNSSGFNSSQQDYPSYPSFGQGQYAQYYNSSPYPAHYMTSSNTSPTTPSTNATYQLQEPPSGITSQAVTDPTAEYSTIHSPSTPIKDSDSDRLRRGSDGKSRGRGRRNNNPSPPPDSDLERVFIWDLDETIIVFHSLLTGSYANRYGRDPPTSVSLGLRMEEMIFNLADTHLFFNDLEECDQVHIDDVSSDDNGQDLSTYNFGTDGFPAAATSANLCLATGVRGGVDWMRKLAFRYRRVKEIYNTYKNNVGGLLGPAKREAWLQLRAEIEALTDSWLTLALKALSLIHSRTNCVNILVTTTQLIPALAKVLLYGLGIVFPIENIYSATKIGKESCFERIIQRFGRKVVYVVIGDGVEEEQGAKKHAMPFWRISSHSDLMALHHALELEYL
Experiment: AlphaScreen disruption of purified GST-SIX1/His-EYA1 interaction
Assay type: binding

| Substance | IC50 |
| --- | --- |
| NSC0191 | 12.6 ± 1.15 µM |
| NSC0933 | 83.4 ± 7.24 µM |
